Calls of active or inactive are those of the source. No cut-off for these calls is given here.
Tests used:
Trypanosoma cruzi [1] = assay: Antiparasitic activity against Trypanosoma cruzi Tulahuen C4 intracellular amastigotes infected in rat L6 cells assessed as growth inhibition at 0.8 ug/ml after 96 hrs by CPRG/Nonidet reagent based photometric analysis relative to control; assay type: functional; details: Tulahuen C4, L6, 96 h, read-out: GI
[2] = tested on: Trypanosoma brucei rhodesiense; assay: Antiparasitic activity against Trypanosoma brucei rhodesiense STIB 900 trypomastigote bloodstream form assessed as growth inhibition at 0.8 ug/ml after 72 hrs by resazurin dye-based fluorometric analysis relative to control; assay type: functional; details: STIB 900, 72 h, read-out: GI
Plasmodium falciparum [3] = assay: (§1) Antiparasitic activity against intraerythrocytic form of chloroquine/pyrimethamine-resistant Plasmodium falciparum K1 infected in human RBC assessed as growth inhibition at 4.8 ug/ml preincubated for 48 hrs followed by [3H]-hypoxanthine addition measured after 24 hrs by liquid scintillation counting analysis relative to control; assay type: functional; details: read-out: GI
Trypanosoma cruzi [4] = assay: Antiparasitic activity against Trypanosoma cruzi Tulahuen C4 intracellular amastigotes infected in rat L6 cells assessed as growth inhibition at 4.8 ug/ml after 96 hrs by CPRG/Nonidet reagent based photometric analysis relative to control; assay type: functional; details: Tulahuen C4, L6, 96 h, read-out: GI
Leishmania donovani [5] = assay: Antiparasitic activity against Leishmania donovani MHOM-ET-67/L82 axenic amastigotes assessed as growth inhibition at 4.8 ug/ml after 72 hrs by resazurin dye-based fluorometric analysis relative to control; assay type: functional; details: MHOM-ET-67/L82, 72 h, read-out: GI
Plasmodium falciparum [6] = assay: Antiparasitic activity against intraerythrocytic form of chloroquine/pyrimethamine-resistant Plasmodium falciparum K1 infected in human RBC preincubated for 48 hrs followed by [3H]-hypoxanthine addition measured after 24 hrs by liquid scintillation counting analysis; assay type: functional
[7] = tested on: Trypanosoma brucei rhodesiense; assay: Antiparasitic activity against Trypanosoma brucei rhodesiense STIB 900 trypomastigote bloodstream form assessed as growth inhibition at 4.8 ug/ml after 72 hrs by resazurin dye-based fluorometric analysis relative to control; assay type: functional; details: STIB 900, 72 h, read-out: GI
Plasmodium falciparum [8] = assay: as §1, with “0.8” for “4.8”; assay type: functional; details: read-out: GI
Leishmania donovani [9] = assay: Antiparasitic activity against Leishmania donovani MHOM-ET-67/L82 axenic amastigotes assessed as growth inhibition at 0.8 ug/ml after 72 hrs by resazurin dye-based fluorometric analysis relative to control; assay type: functional; details: MHOM-ET-67/L82, 72 h, read-out: GI
[10] = Selectivity index, ratio of IC50 for rat L6 cells to IC50 for Trypanosoma cruzi Tulahuen C4 intracellular amastigotes infected in rat L6 cells; assay type: toxicity, cell-based; details: read-out: Ratio IC50
L6 = assay: Cytotoxicity against rat L6 cells assessed as cell viability after 72 hrs by Alamar blue assay; assay type: cell-based; details: L6, 72 h
Trypanosoma cruzi [11] = assay: Antiparasitic activity against Trypanosoma cruzi Tulahuen C4 intracellular amastigotes infected in rat L6 cells after 96 hrs by CPRG/Nonidet reagent based photometric analysis; assay type: functional, cell-based; details: Tulahuen C4, L6, 96 h

Row | Structure (SMILES) | inhibition of growth at 0.8 µg/mL (Trypanosoma cruzi [1]) [%] | inhibition of growth at 0.8 µg/mL [2] [%] | inhibition of growth at 4.8 µg/mL (Plasmodium falciparum [3]) [%] | inhibition of growth at 4.8 µg/mL (Trypanosoma cruzi [4]) [%] | inhibition of growth at 4.8 µg/mL (Leishmania donovani [5]) [%] | Activity (Plasmodium falciparum [6]) | inhibition of growth at 4.8 µg/mL [7] [%] | inhibition of growth at 0.8 µg/mL (Plasmodium falciparum [8]) [%] | inhibition of growth at 0.8 µg/mL (Leishmania donovani [9]) [%] | selectivity ratio [10] | IC50 (L6) [µM] | IC50 (Trypanosoma cruzi [11]) [µM]
1 | CC1Cc2ccccc2N1S(=O)(=O)c1ccccc1 (stereo unspecified) | 0 | 4.6 | 46.4 | 5.2 | 27.9 | Active | 0 | 13.2 | 12.5 |  |  | 
2 | O=[N+]([O-])c1ccc(S(=O)(=O)n2ccc3ccccc32)cc1 | 18.3 | 8.6 | 60.4 | 75 | 77.6 | Active | 29.3 | 2.5 | 24.2 |  |  | 
3 | O=S(=O)(c1ccccc1)N1CCc2ccccc21 | 0 | 0 | 29.1 | 10 | 45.3 | Active | 0 | 2.9 | 7.4 |  |  | 
4 | COc1ccc(S(=O)(=O)N2c3ccccc3CC2C)cc1 (stereo unspecified) | 1.8 | 1.2 | 49.3 | 100 | 35 |  | 4.4 | 5.3 | 2.9 | 0.04 | 0.44 | 9.46
5 | O=[N+]([O-])c1ccc(S(=O)(=O)n2nnc3ccccc32)cc1 |  |  |  |  |  | Active |  |  |  |  |  | 
6 | CC1Cc2ccccc2N1S(=O)(=O)c1ccc(Br)cc1 (stereo unspecified) | 0 | 0 | 76 | 100 | 81.4 |  | 0.9 | 9.1 | 17.6 | 2.29 | 13.2 | 5.76
7 | O=S(=O)(c1ccc(C(F)(F)F)cc1)N1CCCc2ccccc21 | 0 | 7.2 | 75.3 | 22.6 | 85 |  | 18.1 | 7.2 | 20.1 |  |  | 
8 | CC(=O)c1ccc(S(=O)(=O)N2c3ccccc3CCC2C)cc1 (stereo unspecified) | 0 | 0 | 29.8 | 91.9 | 45.7 |  | 1.5 | 4 | 6 |  |  | 
9 | CC1CCc2ccccc2N1S(=O)(=O)c1ccc(C(F)(F)F)cc1 (stereo unspecified) | 5.3 | 5.5 | 98.8 | 98.2 | 96 |  | 8.1 | 26.4 | 29 | 2 | 12.2 | 5.89
10 | O=S(=O)(c1ccccc1)n1nnc2ccccc21 |  |  |  |  |  | Active |  |  |  |  |  | 
11 | Cc1ccc(S(=O)(=O)N2CCc3ccccc32)cc1 | 0 | 3.1 | 20 | 14.4 | 63.7 |  | 0 | 0 | 8.1 |  |  | 
